Data from patent US12485106B2, “Methods of treating fibrotic liver diseases or conditions with indeglitazar” (PLEIOGENIX INC., priority 2023, dated 2025).

Legend:
[1] = test system: mouse model of human alcoholic hepatitis; assay: AH (NIAAA) mouse model, 8-week efficacy and safety study, alone and with prednisolone
Description: Mice were fed with the ethanol diet for four weeks, followed by 4 weeks of intervention (8 weeks total treatment).
Livers were collected at the end-point from all mice and weighed. Liver samples were processed for histology to assess steatosis, inflammatory infiltrates and fibrosis. Briefly, liver tissue was fixed in 4% paraformaldehyde and paraffin-embedded, sectioned into 5 m thickness, and stained with hematoxylin-eosin (H&E), Oil-Red O staining, and Masson's trichrome staining.
Safety testing: The safety of indeglitazar treatment was assessed by body weight measurements and full necropsy at endpoint. Mice were terminated from the experiment by isoflurane anesthesia and blood was collected by a cardiac bleed into EDTA-treated tubes, and then centrifuged to obtain plasma to conduct clinical chemistry including full liver and renal toxicology panel. A portion of the liver was analyzed for liver triglycerides and cholesterol levels by biochemical assays. […] Hearts were weighted and fixed in 10% NBF, paraffin embedded, and sectioned into 4-μm thick slices. H&E staining was used to investigate myocardial cell hypertrophy, and ventricle diameters by microscopy.

alcoholic hepatitis = details: human, in vivo; cited from earlier work
NASH = details: human, in vivo; cited from earlier work
[2] = indeglitazar 50 mg/kg, prednisolone 10 mg/kg, vs EtOH-treated vehicle control
[3] = indeglitazar 50 mg/kg, prednisolone 10 mg/kg, vs ethanol-treated vehicle control
[4] = indeglitazar 50 mg/kg, prednisolone 10 mg/kg, vs vehicle+EtOH
[5] = indeglitazar 50 mg/kg/day, prednisolone 10 mg/kg/day, vs ethanol-treated vehicle control

Question: For C[C@]12C=CC(=O)C=C1CC[C@@H]1[C@@H]2[C@@H](O)C[C@@]2(C)[C@H]1CC[C@]2(O)C(=O)CO [Prednisolone, prednisolone, reference compound], which “liver histopathology: steatosis, hepatocellular karyomegaly, and ballooning” value ([1]; indeglitazar 50 mg/kg, prednisolone 10 mg/kg, data not shown) is on record?
Answer: Its value is “no significant effect”.

Question: What about the “effect on liver hydroxyproline” value [1, 2] of the same compound?
Answer: The value was “no significant effect”.

Question: And the “effect on plasma adiponectin” value [1, 2]?
Answer: The value was “no significant effect”.

Question: And the “effect on ALT” value [1, 3]?
Answer: Its value is “no significant effect”.

Question: What about the “effect on AST” value [1, 3] of the same compound?
Answer: Its value is “no significant effect”.

Question: And the “effect on total bilirubin” value [1, 3]?
Answer: Its value is “increased”.

Question: And the “decrease of plasma TGFβ” value [1, 4]?
Answer: Its value is 56%.

Question: And the increase of adiponectin [1, 4]?
Answer: Its increase of adiponectin is “+3.4%”.

Question: And the “effect on body weight” value [1, 5]?
Answer: The value was “Neither EtOH (vs no EtOH vehicle control), indeglitazar, or prednisolone had a significant effect”.

Question: What about the “effect on heart weight (actual)” value [1, 5] of the same compound?
Answer: Its value is “Neither EtOH (vs no EtOH vehicle control), indeglitazar, or prednisolone had a significant effect”.

Question: What about the “effect on overall survival” value ([1]; indeglitazar 50 mg/kg/day, prednisolone 10 mg/kg/day, vs ethanol-treated vehicle control, male and female mice) of the same compound?
Answer: Its value is “no significant effect”.

Question: What about the “effect on liver triglycerides” value ([1]; prednisolone 10 mg/kg, vs vehicle+EtOH) of the same compound?
Answer: The value was “no significant effect”.

Question: And the “increase of plasma TNF-α” value ([1]; prednisolone 10 mg/kg, vs vehicle+EtOH, P<0.0001)?
Answer: Its value is 123%.

Question: And the “change of hydroxyproline (signed)” value ([1]; prednisolone 10 mg/kg, vs vehicle+EtOH, P>0.05)?
Answer: The value was −7%.

Question: For CC(=O)CCCCn1c(=O)c2c(ncn2C)n(C)c1=O [pentoxifylline], which “overall survival and liver damage in AH patients” value (alcoholic hepatitis) is on record?
Answer: Its value is “failed to improve overall survival or to decrease liver damage”.

Question: With vitamin E as the compound, how does the “improvement of NASH, share of people treated” value (NASH) read?
Answer: Its value is “about half”.
